These results are taken from patent US11324732B2, “Methods for the treatment of dyskinesia in cerebral palsy” (AUSPEX PHARMACEUTICALS, INC., priority 2018, dated 2022).

The subject of data set [1] is children and adolescents with dyskinesia in cerebral palsy.
The subject of data set [2] is patients (age 6 through 18 years) with DCP with predominant choreiform movement disorder.
For data set [3] the following is noted: relative to tetrabenazine; U.S. Pat. No. 8,524,733; cited from earlier work.
Data set [4] deals with adult patients diagnosed with DCP, choreiform predominant. As to the kind of experiment: Example 3: Phase 3 efficacy study in adults. The data set is classed as in vivo, human. On the procedure: (§1) A Phase 3 study to evaluate the efficacy and safety of deutetrabenazine is performed on a population consisting of male and female patients, diagnosed with DCP. Patients may be included in the study only if they meet all of the following criteria: • 1. Patient is older than 18 years of age at baseline. • 2. Patient has had cerebral palsy (CP) symptoms since infancy (≤2 years). • 3. Patient has a diagnosis of DCP according to the Surveillance of Cerebral Palsy in Europe criteria. • 4. Patient has a total score of ≥10 on the MD-CRS part II items at the baseline visit, based on investigator scoring of chorea. • 5. Patient's symptoms are causing functional problems determined by a Clinical Global
Impression of Severity (CGI-S) score of 4 or greater based on investigator scoring. • 6. Choreiform is the predominant movement disorder as assessed by the EAB at screening.
(§2) Patients will receive 6 mg to 48 mg of deutetrabenazine. The titration scheme and maximum dose follows the one in the parent study, Example 1, supra.

Data set [5] has as its system pediatric patients diagnosed with DCP, predominant motor symptoms dystonic. Briefly: Example 4: Phase 3 efficacy study, predominantly dystonic DCP. In kind it is in vivo, human. On the procedure: as §1, with “6 through” for “older than”, “age (inclusive)” for “age”
Impression of Severity (CGI-S) score of 4 or greater based on investigator scoring. • 6. Patient's predominant motor symptoms are dystonic.
as §2

In another data set the test system is patients with CP. The settings on record: cited from earlier work.
Setting [6] is: versus placebo, from baseline to week 15.

For `[2H]C([2H])([2H])Oc1cc2c(cc1OC([2H])([2H])[2H])[C@H]1CC(=O)[C@H](CC(C)C)CN1CC2` (racemic) [deutetrabenazine, (RR,SS)-1,3,4,6,7,11b-hexahydro-9,10-di(methoxy-d3)-3-(2-methylpropyl)-2H-benzo[a]quinolizin-2-one], in data set [1] (in vivo), the safety profile result is on record as “favorable safety profile”. Moreover, the “abnormal involuntary movements associated with dyskinesia in cerebral palsy” value in data set [1] (long term administration of tolerable amounts) is listed as “reduce abnormal involuntary movements”. Further, in data set [2] (6-48 mg/day oral, versus placebo), the “overall safety and efficacy of treatment” value was “safe and effective”. For the same compound, the PGI-I response entry in data set [2] (Much Improved or Somewhat Improved in the PGI-I score) was “demonstrate a PGI-I response”. In addition, in data set [2] (Much Improved or Very Much Improved in the CGI-I score), the CGI-I response result is reported as “demonstrate a CGI-I response”. Also, the CaGI-I response entry in data set [2] (Much Improved or Very Much Improved in the CaGI-I score) is “demonstrate a CaGI-I response”. Besides, the PEDI-CAT result in data set [2] (activities of daily living, parent/caregiver completed) was “improvement”. In data set [2] (in vivo), the UHDRS-TMC result is “significant reductions”; the UHDRS-TMD result is “significant reductions”; the UHDRS-TMS entry is “significant reductions”; the “safety by C-SSRS, ESRS, CBCL, ESS and lack of serious adverse events” value is on record as “safe”. Moreover, the “CP module of the PedsQL” value in data set [2] (quality of life, patient/caregiver) was “significant reductions”. For the same compound, the CGI-S response result in data set [2] (reduction of >1 point in the CGI-S score) is listed as “demonstrate a CGI-S response”. In addition, in data set [2] (setting [6]), the “reduction in the CGI-I score” value is recorded as 0.5-0.7 points, the “reduction in the CaGI-I score” value is 0.5-0.7 points, the “reduction in the MD-CRS part I total score” value is 2-4 points and the “reduction in the MD-CRS part II total score” value is reported as 0.5-4 points. Moreover, the “all primary and secondary endpoints” value in data set [2] (versus placebo, week 15) is “significant improvements”. Further, the “half-life of its active metabolites” value in data set [3] is recorded as “increased half-life”. The safety profile result in data set [4] is “favorable safety profile”. In addition, the “abnormal involuntary movements associated with dyskinesia in cerebral palsy” value in data set [4] (6 mg to 48 mg) is listed as “reduce abnormal involuntary movements”. The safety profile result in data set [5] is “favorable safety profile”. The “dystonic abnormal involuntary movements associated with dyskinesia in cerebral palsy” value in data set [5] (6 mg to 48 mg) is “reduce dystonic abnormal involuntary movements”.
With `Nc1ccncc1` [Dalfampridine], in the data set with patients with CP, the functional improvement entry is reported as “failed to demonstrate functional improvement”.
